Source: publication PMC10435442, “Developing multitarget coumarin based anti-breast cancer agents: synthesis and molecular modeling study” (Scientific Reports, 2023)
Converted amounts (≈) assume the structure as drawn. “And” between values parts separate entries of the source, which are not always exact repeats. Equal entries are not always repeated. Where two headings read alike, the source gives them in different places.

Experiments:
Bax = Bax level (ELISA) in treated cells; type: cell-based, human
Bcl-2 = Bcl-2 level (ELISA) in treated cells; type: cell-based, human; conditions: for Bcl-2 Conc. (single wells) / Bcl-2 Conc. (Average): Bcl-2 ELISA
Caspase-9 = Caspase-9 level (ELISA) in treated cells; type: cell-based, human
MDA-MB-231 [1] = assay: DNA flow cytometric cell cycle analysis, MDA-MB-231; type: cell-based, human
MDA-MB-231 [2] = assay: Annexin V-FITC/PI dual staining apoptosis assay, MDA-MB-231; type: cell-based, human
in vitro = conditions: human, MCF-10A cells (nonmalignant breast)
MCF-7 = assay: MTT cytotoxicity assay, MCF-7; conditions: for IC50: Homo sapiens
MDA-MB-231 [3] = assay: MTT cytotoxicity assay, MDA-MB-231; conditions: for IC50: Homo sapiens; for % viability: MDA
MCF-10A = assay: MTT cytotoxicity assay, nonmalignant MCF-10A; conditions: read-out: MCF-10A IC50; MTT, nonmalignant MCF-10A;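 further: MTT assay with absorbance read at 570 nm after 48 h exposure of cells to serial compound concentrations at 37 °C, testing selectivity against nonmalignant versus cancer cells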
EGFR = EGFR (Homo sapiens, UniProt P00533); assay: In vitro EGFR enzyme inhibition assay (ELISA); conditions: for EGFR %inh: lab report 01-11-2021
[4] = MDA cells (MDA-MB-231), cont.MDA = 1
[5] = MDA-MB-231, compared to control
[6] = MCF7, read-out: cytotoxicity_IC50 mcf7
[7] = MDA-MB-231, read-out: MDA-MBA-231 IC50
[8] = MDA-MB-231, read-out: cytotoxicity_IC50 MDA
[9] = EGFR IC50, lab report 01-11-2021, 10 compounds

EGFR, sequence (P00533 25-1210): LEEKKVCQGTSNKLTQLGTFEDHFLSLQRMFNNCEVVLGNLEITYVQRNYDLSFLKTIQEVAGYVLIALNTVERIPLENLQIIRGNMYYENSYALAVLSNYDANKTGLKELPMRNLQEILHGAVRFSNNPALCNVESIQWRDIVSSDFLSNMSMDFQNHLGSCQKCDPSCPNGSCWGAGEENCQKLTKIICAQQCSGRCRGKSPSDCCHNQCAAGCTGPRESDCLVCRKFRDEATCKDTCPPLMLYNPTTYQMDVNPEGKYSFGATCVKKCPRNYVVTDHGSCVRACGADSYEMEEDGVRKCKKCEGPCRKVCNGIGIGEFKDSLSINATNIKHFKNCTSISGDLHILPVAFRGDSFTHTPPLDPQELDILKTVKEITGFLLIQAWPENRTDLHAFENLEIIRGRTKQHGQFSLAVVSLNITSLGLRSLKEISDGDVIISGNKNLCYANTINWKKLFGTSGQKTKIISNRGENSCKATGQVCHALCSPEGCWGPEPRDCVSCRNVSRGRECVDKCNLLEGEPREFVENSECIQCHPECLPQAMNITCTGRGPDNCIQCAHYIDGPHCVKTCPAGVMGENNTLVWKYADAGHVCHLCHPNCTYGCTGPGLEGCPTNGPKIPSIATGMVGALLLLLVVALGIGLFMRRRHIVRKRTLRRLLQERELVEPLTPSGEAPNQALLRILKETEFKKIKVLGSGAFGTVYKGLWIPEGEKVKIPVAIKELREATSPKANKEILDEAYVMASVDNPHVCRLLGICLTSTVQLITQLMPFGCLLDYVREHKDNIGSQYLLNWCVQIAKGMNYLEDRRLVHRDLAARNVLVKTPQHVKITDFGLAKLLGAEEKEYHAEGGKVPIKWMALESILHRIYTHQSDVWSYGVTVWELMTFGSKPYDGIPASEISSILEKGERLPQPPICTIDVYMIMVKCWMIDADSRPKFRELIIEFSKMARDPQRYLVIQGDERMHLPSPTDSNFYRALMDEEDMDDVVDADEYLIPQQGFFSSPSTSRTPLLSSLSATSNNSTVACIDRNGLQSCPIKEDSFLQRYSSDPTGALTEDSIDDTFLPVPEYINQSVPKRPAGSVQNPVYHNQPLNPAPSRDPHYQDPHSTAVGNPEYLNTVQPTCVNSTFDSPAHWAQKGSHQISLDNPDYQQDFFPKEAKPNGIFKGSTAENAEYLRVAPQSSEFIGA

With `O=C(COc1ccc2c(COC(=O)c3ccc(Cl)cc3)cc(=O)oc2c1)c1ccc(Cl)cc1` [s10] the “Bax Conc. (Average)” value (Bax; MDA, ELISA backfit, duplicate wells) was 248.9 pg/mL, the BAX (Bax; MDA, cell culture supernatant) was 248.9 ± 7.88 pg/mL and the “BAX FLD” value (Bax; MDA, fold vs cont.MDA = 1) was 3.6. The BCL2 conc. (Bcl-2; MDA cells (MDA-MB-231) treated with the compound, cont.MDA 10.83±0.046) was 4.088 ± 0.058 ng/mL, the “Bcl-2 Conc. (single wells)” value (Bcl-2; MDA cells (MDA-MB-231), duplicate wells, control 10.83) was 4.046 ng/mL and 4.129 ng/mL and the “Bcl-2 Conc. (Average)” value (Bcl-2; MDA cells (MDA-MB-231), mean of 2 wells, control 10.83) was 4.088 ng/mL. For the same molecule, the “BCL2 FLD (fold vs control)” value (Bcl-2; [4]) was 0.377, the Casp9 (Caspase-9; MDA cells (MDA-MB-231) treated with the compound, cont.MDA 2.611±0.19) was 16.77 ± 0.37 ng/mL and the “Caspase 9 Conc. (single wells)” value (Caspase-9; MDA cells (MDA-MB-231), caspase9 ELISA, duplicate wells, control 4.084) was 18.48 ng/mL and 17.62 ng/mL. For the same molecule, the “Casp9 FLD (fold vs control)” value (Caspase-9; [4]) was 6.42.

In the case of `O=C(COc1ccc2c(COC(=O)c3ccccc3)cc(=O)oc2c1)c1ccc(Cl)cc1` [Compound S8], the “Bax Conc. (Average)” value (Bax; MCF7, ELISA backfit, wells A2-C2) is reported as 164.5 pg/mL, the BAX (Bax; MCF7, cell culture supernatant) is reported as 164.5 ± 5.58 pg/mL and the “BAX FLD” value (Bax; MCF7, fold vs cont.MCF7 = 1) is reported as 5.27. The BCL2 conc. (Bcl-2; MCF7) was 3.291 ± 0.36 ng/mL, the “BCL2 FLD” value (Bcl-2; MCF7, fold vs cont.MCF7 = 1) was 0.44 and the “Bcl-2 Conc. (Average)” value (Bcl-2; MCF7 cells treated with the compound, mean of 3 wells, control 7.438) was 3.291 ng/mL. The “Bcl-2 Conc. (single wells)” value (Bcl-2; MCF7 cells treated with the compound, replicate wells, control 7.438) was 3.693 ng/mL and 3.01 ng/mL and 3.172 ng/mL, the Casp9 (Caspase-9; MCF7 cells treated with the compound, cont.MCF7 4.528±0.61) was 30.39 ± 2.56 ng/mL and the “Caspase 9 Conc. (Average)” value (Caspase-9; MCF7 cells, caspase9 ELISA, mean of 3 wells, control 4.528) was 30.39 ng/mL. For the same molecule, the “Caspase 9 Conc. (single wells)” value (Caspase-9; MCF7 cells, caspase9 ELISA, replicate wells, control 4.528) was 27.43 ng/mL and 31.78 ng/mL and 31.97 ng/mL and the “Casp9 FLD (fold vs control)” value (Caspase-9; MCF7 cells, cont.MCF7 = 1) was 6.71.

With `O=C(COc1ccc2c(COC(=O)c3ccc(Cl)cc3)cc(=O)oc2c1)c1ccc(Cl)cc1` [Compound 10, {7-[2-(4-Chlorophenyl)-2-oxoethoxy]-2-oxo-2H-chromen-4-yl}methyl 4-chlorobenzoate] the “Comment (cell cycle phase of growth arrest)” value (MDA-MB-231 [1]; MDA) was “cell growth arrest@ S”, the “DNA content %G0-G1” value (MDA-MB-231 [1]; MDA) was 51.97% and the “DNA content %Pre-G1” value (MDA-MB-231 [1]; MDA) was 33.43%. The “DNA content %S” value (MDA-MB-231 [1]; MDA) was 43.82%, the “%G0-G1” value (MDA-MB-231 [1]; MDA-MB-231, IC50 concentration) was 51.97^ad ^AC % and the “%Pre-G1” value (MDA-MB-231 [1]; MDA-MB-231, IC50 concentration) was 33.43^bdf ^AB %. For the same molecule, the “%S” value (MDA-MB-231 [1]; MDA-MB-231, IC50 concentration) was 43.82^bc ^D %, the “cell cycle arrest at S phase” value (MDA-MB-231 [1]; [5]) was 1.59 folds and the “increase of apoptotic cells in pre-G1 phase” value (MDA-MB-231 [1]; [5]) was 16.22 folds. The “Apoptosis Early” value (MDA-MB-231 [2]; MDA) was 9.61, the “Apoptosis Late” value (MDA-MB-231 [2]; MDA) was 17.83 and the “Apoptosis Total” value (MDA-MB-231 [2]; MDA) was 33.43. The Necrosis (MDA-MB-231 [2]; MDA) was 5.99, the “% Apoptosis Early” value (MDA-MB-231 [2]; MDA-MB-231) was 9.61^df % and the “% Apoptosis Late” value (MDA-MB-231 [2]; MDA-MB-231) was 17.83^df %. For the same molecule, the “% Apoptosis Total” value (MDA-MB-231 [2]; MDA-MB-231) was 33.43% and 33.43^df %, the “% Necrosis” value (MDA-MB-231 [2]; MDA-MB-231) was 5.99% and the “Bax Conc” value (Bax; MDA-MB-231 cells) was 0.249±0.0079^be ng/ml. For the same molecule, the “Bcl-2 Conc” value (Bcl-2; MDA-MB-231 cells) was 4.088±0.058^cf ng/ml, the “Caspase-9 Conc.” value (Caspase-9; MDA-MB-231 cells) was 16.77±0.37^be ng/ml and the IC50 at 48 h (in vitro) was 37.1 ± 1.81 µg/mL (≈ 76.8 µM). The viability at 48 h, 0.4 ug (in vitro) was 82.6%, the viability at 48 h, 1.6 ug (in vitro) was 69.1% and the viability at 48 h, 6.25 ug (in vitro) was 61.1%. The viability at 48 h, 25 ug (in vitro) was 52.6%, the viability at 48 h, 100 ug (in vitro) was 44.4% and the IC50 (MCF-7; MCF7, read-out: MCF-7 IC50) was 95.8 ± 2.81 µM. For the same molecule, the IC50 (MCF-7; [6]) was 46.3 ± 2.81 µg/mL, the “% viability” value (MCF-7; MCF7, 0.4ug) was 85.616% and the “% viability” value (MCF-7; MCF7, 1.6ug) was 73.288%. For the same molecule, the “% viability” value (MCF-7; MCF7, 6.3ug) was 64.521%, the “% viability” value (MCF-7; MCF7, 25ug) was 54.315% and the “% viability” value (MCF-7; MCF7, 100ug) was 44.863%. The IC50 (MDA-MB-231 [3]; [7]) was 2.3 ± 0.06 µM, the IC50 (MDA-MB-231 [3]; [8]) was 1.09 ± 0.06 µg/mL and the “% viability” value (MDA-MB-231 [3]; 0.4ug (log conc. -0.41)) was 56.384%. The “% viability” value (MDA-MB-231 [3]; 1.6ug (log conc. 0.19)) was 47.375%, the “% viability” value (MDA-MB-231 [3]; 6.25ug (log conc. 0.8)) was 40.274% and the “% viability” value (MDA-MB-231 [3]; 25ug (log conc. 1.4)) was 30.609%. The “% viability” value (MDA-MB-231 [3]; 100ug (log conc. 2)) was 23.5084%, the IC50 (MCF-10A) was 76.8 ± 1.81 µM and the IC50 (EGFR; [9]) was 0.0869 µM. The IC50 (EGFR; EGFR inhibition IC50) was 0.086 ± 0.006 µM and the “Percentage above Reference IC50 (potency relative to erlotinib)” value (EGFR) was 97.67% and 97.674%.

With `COc1ccccc1C(=O)OCc1cc(=O)oc2cc(O)ccc12` [Compound 4, (7-Hydroxy-2-oxo-2H-chromen-4-yl)methyl 2-methoxybenzoate] the IC50 at 48 h (in vitro) was 41.6 ± 2.03 µg/mL (≈ 127 µM), the viability at 48 h, 0.4 ug (in vitro) was 76.8% and the viability at 48 h, 1.6 ug (in vitro) was 69.5%. The viability at 48 h, 6.25 ug (in vitro) was 61.1%, the viability at 48 h, 25 ug (in vitro) was 53.6% and the viability at 48 h, 100 ug (in vitro) was 44.3%. For the same molecule, the IC50 (MCF-7; MCF7, read-out: MCF-7 IC50) was 17.2 ± 0.34 µM, the IC50 (MCF-7; [6]) was 5.6 ± 0.34 µg/mL and the “% viability” value (MCF-7; MCF7, 0.4ug) was 68.369%. The “% viability” value (MCF-7; MCF7, 1.6ug) was 58.612%, the “% viability” value (MCF-7; MCF7, 6.3ug) was 49.509% and the “% viability” value (MCF-7; MCF7, 25ug) was 38.9%. For the same molecule, the “% viability” value (MCF-7; MCF7, 100ug) was 30.9103%, the IC50 (MDA-MB-231 [3]; [7]) was 6.4 ± 0.11 µM and the IC50 (MDA-MB-231 [3]; [8]) was 2.08 ± 0.11 µg/mL. The “% viability” value (MDA-MB-231 [3]; 0.4ug (log conc. -0.41)) was 60.769%, the “% viability” value (MDA-MB-231 [3]; 1.6ug (log conc. 0.19)) was 51.538% and the “% viability” value (MDA-MB-231 [3]; 6.25ug (log conc. 0.8)) was 43.254%. The “% viability” value (MDA-MB-231 [3]; 25ug (log conc. 1.4)) was 34.142%, the “% viability” value (MDA-MB-231 [3]; 100ug (log conc. 2)) was 25.2071% and the IC50 (MCF-10A) was 128 ± 2.03 µM. It also gave an IC50 (EGFR; [9]) of 0.438 µM, an IC50 (EGFR; EGFR inhibition IC50) of 0.438 ± 0.027 µM and an EGFR %inh (EGFR; conc 0.01 (unit not given)) of 25%. For the same molecule, the EGFR %inh (EGFR; conc 0.1 (unit not given)) was 46%, the EGFR %inh (EGFR; conc 1 (unit not given)) was 70% and the EGFR %inh (EGFR; conc 10 (unit not given)) was 87%. The “Percentage above Reference IC50 (potency relative to erlotinib)” value (EGFR) was 19.178%.
